31 compounds from US6780883B2, “Amide inhibitors of microsomal triglyceride transfer protein” (Warner-Lambert Company, priority 1998, dated 2004) can be followed below.

pIC50: −log10 of the molar value.

As a reminder, the pIC50 is the negative decadic logarithm of the IC50, by convention in mol/L.

Experiment [1] has as its target apolipoprotein(a), [apo(a)], apolipoproteinB-100, [apoB-100], coupling reaction that generates Lp(a) (Homo sapiens, UniProt P04114+P08519). The experiment in a line: LPABC screen: lipoprotein(a) biochemical coupling assay, Lp(a) content by ELISA. The following applies: recombinant apo(a) 17-kringle (293 cell media) + HepG2 conditioned media, 67 minutes, 37° C., 0.3 to 50 μM compound; read-out: Lp ABC IC50. How it is done:
LPABC Screen The lipoprotein(a), [Lp(a)], biochemical coupling assay (LPABC) is used to characterize inhibitors of the apolipoprotein(a), [apo(a)], apolipoproteinB-100, [apoB-100], coupling reaction that generates Lp(a). Conditioned media from 293 cells (ATCC CRL-1573), permanently transfected with an apo(a) 17-kringle cDNA expression construct (pcDNA-AMP, In Vitrogen, Carlsbad, Calif.) using standard molecular biology techniques, was used as a source of recombinant apo(a) is diluted 1:3 with phosphate buffered saline (PBS) and 90 μL is pipetted into each well of a 96-well plate and placed into a 37° C. incubator for 10 minutes. Twenty microliters of a 0.3 to 50 μM solution of a compound of the present invention in PBS is added to the warmed plate. Ninety microliters of HepG2 (ATCC HB-8065) cell conditioned media diluted 1:3 with PBS is added to the apo(a)/compound mixture and mixed by pipetting up and down 5 times. The reaction is incubated for 67 minutes in a 37° C. incubator. A 100 μL aliquot of the reaction is removed and assayed for its Lp(a) content by an enzyme linked immunosorbent assay (ELISA).
In general terms: An ELISA detects its analyte on a solid surface through an enzyme-linked reagent.

The subject of experiment [2] is Lp(a) production in HepG2^K17 cells. The experiment in a line: LPA3 screen: inhibition of Lp(a) production in transfected HepG2 cells, Lp(a) in media by ELISA. In kind it is cell-based. To be noted: Homo sapiens, 8 hours, 0.3 to 50 μM compound, Lp(a) normalized for total protein, read-out: Lp A3 IC50. How it is done: The LPA3 screen is used to identify compounds that inhibit Lp(a) production. This screen employs permanently transfected HepG2 cells (HepG2^K17) that are generated using an apo(a) 17-kringle cDNA expression construct (pcDNA-AMP, In Vitrogen, Carlsbad, Calif.) in accordance with methods that are well-known in molecular biology.
HepG2^K17 cells are seeded in 96-well plates at a density of 75,000 cells per well in 0.25 mL of Dulbecco's Modified Eagle Media (DMEM) containing 10% fetal bovine serum (FBS). Seeded plates are incubated overnight in a 37° C., 5% CO2/95% 02 incubator. The media is removed, replaced with (1) fresh media, or (2) fresh media plus 0.3 to 50 μM of a compound of the present invention in 20 μL of PBS, and the plates returned to the incubator for 8 hours. After the additional 8 hours of incubation, Lp(a) is assayed in the media by ELISA. Cells are digested with 0.5N NaOH overnight and assayed for total protein. Lp(a) values are normalized for total protein content.

For `CCN(CC)CCCc1ccc(N(Cc2ccc(OC)cc2)C(=O)c2ccccc2)cc1` [Example 54, N-[4-(3-Diethylamino-propyl)-phenyl]-N-(4-methoxy-benzyl)-benzamide], the pIC50 was below 4.30 in experiment [1] and 4.38 in experiment [2].
The corresponding values for `CCOc1ccc(C(=O)N(Cc2ccccc2-c2ccccc2)c2ccc(OC)nc2)cc1` [Example 95, N-Biphenyl-2-ylmethyl-4-ethoxy-N-(6-methoxy-pyridin-3-yl)-benzamide] are below 4.30 and 4.94.
The corresponding values for `COc1ccc(N(Cc2ccccc2-c2ccccc2)C(=O)c2ccccc2OC)cn1` [Example 91, N-Biphenyl-2-ylmethyl-2-methoxy-N-(6-methoxy-pyridin-3-yl)-benzamide] are below 4.30 and 4.33.
Taken in the same sequence, the figures for `COc1ccc(C(=O)N(Cc2cc(C(C)(C)C)cc(C(C)(C)C)c2)c2ccccc2)cc1OC` [Example 41, N-(3,5-Di-tert-butyl-benzyl)-3,4-dimethoxy-N-phenyl-benzamide] were below 4.30 and 4.31.
As to `COc1ccccc1N(Cc1ccc(Cl)c(Cl)c1)C(=O)c1ccccc1` [Example 50, N-(3,4-Dichloro-benzyl)-N-(2-methoxy-phenyl)-benzamide], the pIC50 in experiment [1] was below 4.30; in experiment [2] it was 4.82.
The corresponding values for `COc1ccc(N(Cc2ccccc2-c2ccccc2)C(=O)c2ccccc2OCc2ccccc2)cc1` [Example 107, 2-Benzyloxy-N-biphenyl-2-ylmethyl-N-(4-methoxy-phenyl)-benzamide] are below 4.30 and 4.81.
The corresponding values for `CCOc1ccccc1C(=O)N(Cc1ccc(Cl)c(Cl)c1)c1cccnc1` [Example 78, N-(3,4-Dichloro-benzyl)-2-ethoxy-N-pyridin-3-yl-benzamide] are below 4.30 and 4.99.
Taken in the same sequence, the figures for `O=C(c1cc2ccccc2s1)N(Cc1cccnc1)Cc1ccccc1-c1ccccc1` [Example 125, Benzo[b]thiophene-2-carboxylic acid biphenyl-2-ylmethyl-pyridin-3-ylmethyl-amide] were below 4.30 and 4.62.
Turning to `CC(C)c1ccc(C(=O)N(Cc2ccc3ccccc3c2)c2cccnc2)cc1` [Example 70, 4-Isopropyl-N-naphthalen-2-ylmethyl-N-pyridin-3-yl-benzamide], the pIC50 was below 4.30 in experiment [1] and 5.14 in experiment [2].
Taken in the same sequence, the figures for `CCOc1ccccc1C(=O)N(Cc1ccccc1-c1ccccc1)c1ccc(OC)nc1` [Example 90, N-Biphenyl-2-ylmethyl-2-ethoxy-N-(6-methoxy-pyridin-3-yl)-benzamide] were below 4.30 and 4.50.
Take `O=C(c1ccccc1Br)N(Cc1cccnc1)Cc1ccccc1-c1ccccc1` [Example 98, N-Biphenyl-2-ylmethyl-2-bromo-N-pyridin-3-ylmethyl-benzamide]: the pIC50 in experiment [1] is below 4.30; in experiment [2] it was 5.07.
For the compound `COc1ccc(N(Cc2cc(C(C)(C)C)cc(C(C)(C)C)c2)C(=O)c2cc(OC)c(OC)c(OC)c2)cn1` [Example 66, N-(3,5-Di-tert-butyl-benzyl)-3,4,5-trimethoxy-N-(6-methoxy-pyridin-3-yl)-benzamide], the negative logarithm of the IC50 (pIC50) in experiment [1] is below 4.30; in experiment [2] it was 4.71.
Taken in the same sequence, the figures for `COc1ccccc1N(Cc1ccc2ccccc2c1)C(=O)c1ccccc1` [Example 85, N-(2-Methoxy-phenyl)-N-naphthalen-2-ylmethyl-benzamide] were below 4.30 and 4.99.
Taken in the same sequence, the figures for `CCN(CC)CCCc1ccc(N(Cc2cccc(OC)c2)C(=O)c2ccccc2)cc1` [Example 55, N-[4-(3-Diethylamino-propyl)-phenyl]-N-(3-methoxy-benzyl)-benzamide] were below 4.30 and 4.43.
Taken in the same sequence, the figures for `O=C(c1sc2ccccc2c1Cl)N(Cc1ccccc1-c1ccccc1)c1cccnc1` [Example 115, 3-Chloro-benzo[b]thiophene-2-carboxylic acid biphenyl-2-ylmethyl-pyridin-3-yl-amide] were below 4.30 and 4.63.
Consider `COc1ccc(C(=O)N(Cc2cc(Br)cc(Br)c2)c2ccccc2)cc1OC` [Example 43, N-(3,5-Dibromo-benzyl)-3,4-dimethoxy-N-phenyl-benzamide], for which the pIC50 in experiment [1] is below 4.30; in experiment [2] it was 4.50.
The corresponding values for `CCOc1ccccc1C(=O)N(Cc1cccnc1)Cc1ccccc1-c1ccccc1` [Example 96, N-Biphenyl-2-ylmethyl-2-ethoxy-N-pyridin-3-ylmethyl-benzamide] are below 4.30 and 5.12.
The corresponding values for `COc1ccc(N(Cc2ccccc2-c2ccccc2)C(=O)c2ccccc2SC)cc1` [Example 126, N-Biphenyl-2-ylmethyl-N-(4-methoxy-phenyl)-2-methylsulfanyl-benzamide] are below 4.30 and 4.80.
Taken in the same sequence, the figures for `COc1cccc(N(Cc2ccccc2-c2ccccc2)C(=O)c2ccccc2SC)c1` [Example 129, N-Biphenyl-2-ylmethyl-N-(3-methoxy-phenyl)-2-methylsulfanyl-benzamide] were below 4.30 and 5.19.
Regarding `COc1ccc(N(Cc2ccccc2-c2ccccc2)C(=O)c2cccc3c2OCO3)cn1` [Example 109, Benzo[1,3]dioxole-4-carboxylic acid biphenyl-2-ylmethyl-(6-methoxy-pyridin-3-yl)-amide], the pIC50 is below 4.30 in experiment [1] and 4.93 in experiment [2].
Taken in the same sequence, the figures for `CCOc1ccccc1C(=O)N(Cc1cccc(OC)c1)c1cccnc1` [Example 77, 2-Ethoxy-N-(3-methoxy-benzyl)-N-pyridin-3-yl-benzamide] were below 4.30 and 4.35.
The corresponding values for `CCCSc1ccccc1C(=O)N(Cc1ccccc1-c1ccccc1)c1ccc(OC)c(OC)c1` [Example 133, N-Biphenyl-2-ylmethyl-N-(3,4-dimethoxy-phenyl)-2-propylsulfanyl-benzamide] are below 4.30 and 4.78.
With `CCCCOc1ccc(N(Cc2ccc(C(C)(C)C)cc2)C(=O)CN(CC)CC)cn1` [Example 83, N-(6-Butoxy-pyridin-3-yl)-N-(4-tert-butyl-benzyl)-2-diethylamino-acetamide], the pIC50 in experiment [1] was below 4.30; in experiment [2] it was 4.47.
The corresponding values for `COc1ccc(CN(C(=O)c2ccccc2SCc2ccccc2)c2ccc(OC)cc2)cc1` [Example 40, 2-Benzylsulfanyl-N-(4-methoxy-benzyl)-N-(4-methoxy-phenyl)-benzamide] are below 4.30 and 4.22.
On to `CCOc1ccccc1C(=O)N(Cc1ccc(OC)cc1)c1cccnc1` [Example 76, 2-Ethoxy-N-(4-methoxy-benzyl)-N-pyridin-3-yl-benzamide], for which the figures for the pIC50 in experiment [1] and in experiment [2] were below 4.30 and 4.48, respectively.
The corresponding values for `CCN(CC)CCCc1ccc(N(Cc2ccc3c(c2)C(C)(C)CCC3(C)C)C(=O)c2ccccc2)cc1` [Example 89, N-[4-(3-Diethylamino-propyl)-phenyl]-N-(5,5,8,8-tetramethyl-5,6,7,8-tetrahydro-naphthalen-2-ylmethyl)-benzamide] are below 4.30 and 4.88.
Taken in the same sequence, the figures for `CCOc1ccc(C(=O)N(Cc2cccnc2)Cc2ccccc2-c2ccccc2)cc1` [Example 102, N-Biphenyl-2-ylmethyl-4-ethoxy-N-pyridin-3-ylmethyl-benzamide] were below 4.30 and 4.80.
Taken in the same sequence, the figures for `O=C(c1ccccc1[N+](=O)[O-])N(Cc1ccccc1-c1ccccc1)c1ccncc1` [Example 122, N-Biphenyl-2-ylmethyl-2-nitro-N-pyridin-4-yl-benzamide] were below 4.30 and 4.65.
`COc1ccc(C(=O)N(Cc2ccc3ccccc3c2)c2ccccc2)cc1OC` [Example 47, 3,4-Dimethoxy-N-naphthalen-2-ylmethyl-N-phenyl-benzamide]: the negative-log IC50 (pIC50) in experiment [1] was below 4.30; in experiment [2] it was 4.76.
The corresponding values for `O=C(c1ccccc1OCc1ccccc1)N(Cc1ccccc1-c1ccccc1)c1ccncc1` [Example 123, 2-Benzyloxy-N-biphenyl-2-ylmethyl-N-pyridin-4-yl-benzamide] are below 4.30 and 5.64.
The corresponding values for `CCOc1ccccc1C(=O)N(Cc1ccccc1-c1ccccc1)c1ccncc1` [Example 118, N-Biphenyl-2-ylmethyl-2-ethoxy-N-pyridin-4-yl-benzamide] are below 4.30 and 5.24.
